Experimental data from patent publication US10058579B2, “Dietary supplements containing extracts of cinnamon and methods of using same to promote enhanced sirtuin, cell and telomere integrity” (IN Ingredients, Inc., priority 2010, dated 2018).

Tested on: SIRT family mRNA expression
Assay: sirtuin (SIRT family) mRNA expression in rat primary enterocytes, quantitative PCR
Assay type: cell-based
Conditions: 2 μg/ml; enterocytes of chow-fed rats; FIG. 2
Description: The baseline value for the effects of a high fructose diet on SIRT family mRNA expression is established. The experimental protocols parallel those of Firestein, R., et al., PLoS ONE, 2008; 3(4): e2020. doi:10.1371/journal.pone.0002020 except using Wistar rats. The animals fed ad libitum with water and either a standard chow diet or a high fructose diet. Primary enterocytes are obtained from animals (6 months of age) following sacrifice and rapid harvest of the intestine. The isolated intestine is thoroughly flushed with ice cold PBS.
Total RNA is isolated from primary enterocyte tissue obtained as above, adipose tissue (obtained by biopsy), or liver (obtained by biopsy) using TR1 reagent (Applied Biosystems, Austin, Tex.), according to the manufacturer's guidelines. The resulting total RNA is subjected to DNase treatment using RNase-free DNase (Ambion). The purity of isolated RNA is measured by a NanoDrop spectrophotometer. A set concentration of RNA is reverse transcribed into cDNA using SuperScript II RT, and quantitative PCR is performed on ABI Prism 7500 Sequence Detection System (Applied Biosystems, Carlsbad, Calif.) using SYBR Green PCR Master Mix (Applied Biosystems, Carlsbad, Calif.).
The level of sirtuin mRNA expression is assayed following exposure of rat primary enterocytes to the anthocyanin delphinidin. […]

With `Oc1cc(O)c2cc(O)c(-c3cc(O)c(O)c(O)c3)[o+]c2c1` [delphinidin] the “increase of sirtuin gene expression as measured by mRNA levels over control” value was 2-3 fold.
